Data taken from patent publication US20210059933A1, “HYDROGELS AS ORAL DELIVERY DOSAGE FORMS, METHODS OF MAKING AND USING SAME” (priority 2019, published 2021).

Key:
[1] = drug by itself; cited from earlier work
[2] = lipophilic partition coefficient of the drug; cited from earlier work
[3] = Release of drug from drug-loaded disintegrating hydrogel into simulated gastric fluid, supersaturation by UV-vis; details: 2 hours, 150 rpm, hydrogel from 25% by volume acetal cross-linker, drug loading as in % wt drug
Protocol: A disintegrating hydrogel is first formed from 0.125 mL of a solution of dimethylformamide containing 25% by volume of the cross-linker triethylene glycol di[ethyl-1-methacryloyloxy poly(ethylene glycol) acetal] and 5% by volume of the photoinitiator 2-hydroxy-2-methylpropiophenone then purified by washing several times in ethanol. This disintegrating hydrogel is then transferred to the same solvent used to maximize the dissolution of the active pharmaceutical ingredient of interest. The hydrogel is transferred to a silicone mold and heated for a minimum amount of time to evaporate a majority of the solvent soaked into the hydrogel pores. Then about 0.1 mL of a solution of the active pharmaceutical ingredient solubilized in the preferred solvent is added to the silicone mold containing the hydrogel, which is allowed to swell in order to absorb the solution. Once absorbed, the solvent is removed in a vacuum oven in order to induce the crystallization of the active pharmaceutical ingredient in the hydrogel pores. The mass of the active pharmaceutical ingredient contained in the disintegrating hydrogel is determined experimentally then normalized by the combined mass of both components to quantify the weight fraction of the active pharmaceutical ingredient.
The hydrogel is added to the vial and allowed to dissolve over the course of 2 hours. The presence of the active pharmaceutical ingredient in the aqueous solution is monitored by ultraviolet-visible spectrometry to quantify the concentration relative to the inherent solubility of the active pharmaceutical ingredient without a hydrogel present. The ratio of the solubility achieved upon release from disintegrating hydrogels to the solubility achieved upon dissolution without disintegrating hydrogels is the supersaturation.

[4] = Dissolution of drug encapsulated in acid-hydrolysable hydrogels in 0.1M HCl solution (pH=1); assay type: physicochemical; details: immediate release acid-hydrolysable hydrogels
Source text: FIG. 3 is a dissolution profile of vitamin E (tocopherol) encapsulated at various drug loading levels in hydrogels composed of 25% by volume acetal cross-linker into a 0.1M HCl solution (pH=1).
The hydrogel labelled acetal hydrogel [w/ 10% surfactant] {w/ 15% surfactant} were synthesized by polymerizing a pre-cursor solution containing 25% [20%] {20%} by volume of the triethylene glycol di[ethyl-1-methacryloyloxy poly(ethylene glycol) acetal] cross-linker, 0% [3.9%] {3.9%} by volume of methyl methacrylate, 0% [6.1%] {6.1%} by volume of dimethylaminoethyl methacrylate, and 0% [10%] {15%} by volume of a hydrolytically hydrolysable surfactant monomer: acetaldehyde-(stearyl PEG-20 ether)-(acrylate ethylene glycol) acetal. Each drug substance is loaded into the pores of the hydrogel by first dissolving in ethanol and adding the organic solution into a silicone mold containing the pre-formed and washed hydrogel followed by evaporation of the solvent. Sufficient drug substance solution is added to the mold to reach a range of drug loading values.

Row | Compound | C_s (aqueous solubility) [1] | log P [2] | X_sat (supersaturation: ratio of solubility achieved upon release from disintegrating hydrogels to solubility without hydrogels) [3] | supersaturation level of final concentration [4]
1 | Cc1cn(-c2cc(NC(=O)c3ccc(C)c(Nc4nccc(-c5cccnc5)n4)c3)cc(C(F)(F)F)c2)cn1 [nilotinib] | 2.01 µg/mL | 4.51 |  | 
2 | COC1=C(OC)C(=O)C(C/C=C(\C)CC/C=C(\C)CC/C=C(\C)CC/C=C(\C)CC/C=C(\C)CC/C=C(\C)CC/C=C(\C)CC/C=C(\C)CC/C=C(\C)CCC=C(C)C)=C(C)C1=O [Coenzyme Q10] | 0.2 µg/mL | 9.9 | 69.1 | 
3 | C[C@H]1C[C@@H]2[C@H]([C@@H](O)C[C@@]3(C)[C@H]2CC[C@]3(O)C(=O)CO)[C@@]2(C)C=CC(=O)C=C12 [methylprednisolone] |  | 1.53 |  | 
4 | CC/C=C\C/C=C\C/C=C\C/C=C\C/C=C\CCCC(=O)O [eicosapentaenoic acid] | 0.29 µg/mL | 6.1 |  | 
5 | C[C@@H]1[C@H](O)[C@@H](C)/C=C/C=C/C=C/C=C/C=C/C=C/C=C/[C@H](O[C@@H]2O[C@H](C)[C@@H](O)[C@H](N)[C@@H]2O)C[C@@H]2O[C@](O)(C[C@@H](O)C[C@@H](O)[C@H](O)CC[C@@H](O)C[C@@H](O)CC(=O)O[C@H]1C)C[C@H](O)[C@H]2C(=O)O [amphotericin b] | 82 µg/mL | 0.8 | 13.8 | 
6 | CC(=O)[C@H]1CC[C@H]2[C@@H]3CCC4=CC(=O)CC[C@]4(C)[C@H]3CC[C@]12C [progesterone] | 5.5 µg/mL |  |  | ≤ 11 times the intrinsic solubility
7 | Cc1ccc(Nc2nccc(N(C)c3ccc4c(C)n(C)nc4c3)n2)cc1S(N)(=O)=O [pazopanib] | 43.3 µg/mL | 3.59 |  | 
8 | CC(C)/N=c1\cc2n(-c3ccc(Cl)cc3)c3ccccc3nc-2cc1Nc1ccc(Cl)cc1 [clofazimine] | 0.23 µg/mL |  |  | 
9 | CCCCN(CCCC)CC(O)c1cc(Cl)cc2c1-c1ccc(Cl)cc1/C2=C/c1ccc(Cl)cc1 (centres unmarked) [lumefantrine] | 0.04 µg/mL | 8.34 |  | 
10 | C=C(C)[C@@H]1CCC(C)=C[C@H]1c1c(O)cc(CCCCC)cc1O [cannabidiol (CBD), cannabidiol] |  |  | 22.3 | 
11 | tocopherol [tocopherol (vitamin E)] |  |  |  | up to 74 times the intrinsic solubility
12 | CCCSc1ccc2nc(NC(=O)OC)[nH]c2c1 [albendazole] | 22.8 µg/mL | 2.7 | 2.01 | 
